Data as given in ChEMBL document CHEMBL1201862, “PubChem BioAssay data set” (2004).
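1) Cells in 96-well plates. 2) Compound, 48 h, 5 concentrations. 3) Linear interpolation between surrounding doses. 4) Unreached endpoint = highest concentration. At the GI50, growth is halved.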 The source made the active and inactive calls. Rule as the data show it: active = GI50 up to about 1.1 µM and inactive = higher.

Experiments:
Test in all cases: NCI-60 cell line screen, 48 h
[1] = test system: KM12
[2] = test system: LOX IMVI
[3] = test system: RPMI-8226
[4] = test system: SF-539
[5] = test system: HT-29
[6] = test system: MCF7
[7] = test system: UACC-257
[8] = test system: HCC 2998
[9] = test system: SK-MEL-5
[10] = test system: SF-295
[11] = test system: SN12C
[12] = test system: NCI-H460
[13] = test system: CAKI-1
[14] = test system: COLO 205
[15] = test system: OVCAR-4
[16] = test system: SK-OV-3
[17] = test system: Malme-3M
[18] = test system: RXF 393
[19] = test system: M14
[20] = test system: TK-10

Compound | GI50 [1] | GI50 [2] | GI50 [3] | GI50 [4] | GI50 [5] | GI50 [6] | GI50 [7] | GI50 [8] | GI50 [9] | GI50 [10] | GI50 [11] | GI50 [12] | GI50 [13] | GI50 [14] | GI50 [15] | GI50 [16] | GI50 [17] | GI50 [18] | GI50 [19] | GI50 [20]
C[C@]12CC[C@H](O)C=C1CC[C@@H]1[C@@H]2CC[C@]2(C)C(c3ccc(=O)oc3)CC[C@]12O (stereo partly drawn) | 0.0336 µM (active) | 0.0125 µM (active) | 0.0125 µM (active) | 0.0125 µM (active) | 0.035 µM (active) | 0.015 µM (active) | 0.0181 µM (active) | 0.0372 µM (active) | 0.0125 µM (active) | 0.0134 µM (active) | 0.0125 µM (active) | 0.0132 µM (active) | 0.0151 µM (active) | 0.033 µM (active) | 0.0146 µM (active) | 0.0294 µM (active) | 0.0135 µM (active) |  |  | 
COC(=O)C1=C(OC(=O)/C=C/c2ccc(Cl)cc2)C(C(=O)OC)[C@@]2(O)[C@@H](C(=O)OC)[C@H](C)C[C@@H]1[C@@H]2C(=O)OC (stereo partly drawn) | 34.1 µM (inactive) | 13.1 µM (inactive) |  | 17.6 µM (inactive) | 26.1 µM (inactive) |  | 45.1 µM (inactive) |  | 17.2 µM (inactive) | 29.4 µM (inactive) | 19 µM (inactive) | 27.2 µM (inactive) | 22.5 µM (inactive) | 17.1 µM (inactive) | 27.1 µM (inactive) | 24.6 µM (inactive) | 11.3 µM (inactive) | 27.2 µM (inactive) | 23.2 µM (inactive) | 62.8 µM (inactive)
CCCCCCCCCCCC[N+](CCCCCCCCCCCC)=C1SCCS1 |  | 1.97 µM (inactive) | 1.49 µM (inactive) | 12.5 µM (inactive) | 3.36 µM (inactive) |  | 9.14 µM (inactive) | 10.3 µM (inactive) | 6.07 µM (inactive) | 3.05 µM (inactive) | 3.92 µM (inactive) | 7.28 µM (inactive) | 12.8 µM (inactive) | 8.04 µM (inactive) | 3.6 µM (inactive) | 16.6 µM (inactive) | 6.64 µM (inactive) | 3.45 µM (inactive) | 10.5 µM (inactive) | 15.2 µM (inactive)
NCCCNCCSSCc1ccccc1CSSCCNCCCN | 49.9 µM (inactive) | 61.1 µM (inactive) | 27.8 µM (inactive) | > 100 µM (inactive) | 14.2 µM (inactive) |  | 25 µM (inactive) | 81.5 µM (inactive) | 79.3 µM (inactive) | > 100 µM (inactive) | > 100 µM (inactive) | > 100 µM (inactive) | 35.7 µM (inactive) | 39.4 µM (inactive) | 70.6 µM (inactive) | > 100 µM (inactive) | 90.6 µM (inactive) | > 100 µM (inactive) | 31.9 µM (inactive) | > 100 µM (inactive)
COc1cc(C2C(C(=O)O)=C(CO)Oc3cc4c(cc32)OCO4)cc(OC)c1OC (stereo not drawn) |  | > 100 µM (inactive) | > 100 µM (inactive) |  | > 100 µM (inactive) |  | > 100 µM (inactive) |  | > 100 µM (inactive) | > 100 µM (inactive) | > 100 µM (inactive) | > 100 µM (inactive) | 44 µM (inactive) | > 100 µM (inactive) | > 100 µM (inactive) | > 100 µM (inactive) |  | 93.3 µM (inactive) | > 100 µM (inactive) | > 100 µM (inactive)
C=CCn1c(=O)c(C)cn(COCCO)c1=O | > 100 µM (inactive) | > 100 µM (inactive) | > 100 µM (inactive) | > 100 µM (inactive) | > 100 µM (inactive) | > 100 µM (inactive) | > 100 µM (inactive) | > 100 µM (inactive) | > 100 µM (inactive) |  | > 100 µM (inactive) | > 100 µM (inactive) | > 100 µM (inactive) | > 100 µM (inactive) |  |  | > 100 µM (inactive) | > 100 µM (inactive) | > 100 µM (inactive) | > 100 µM (inactive)
